One experiment has as its target USP30 (Homo sapiens (Human), UniProt Q70CQ3). The experiment in a line: Dundee MALDI-TOF mass spectrometry assay (K48-linked diubiquitin cleavage). Particulars: USP30 25 ng/μl, K48-linked diubiquitin 5.6 μM, read-out: USP30 IC50 μM (avg). The class given is biochemical. As for the experimental part:
USP30 was diluted in a buffer containing 40 mM Tris, 0.01% BSA, 1 mM DTT and K48 in 40 mM Tris, 0.01% BSA.
The compounds were pre-incubated with the USP30 for 5 mins at room temp before the K48 dimer addition. The assay mixture was then incubated for 45 mins at room temp. The assay was stopped by the addition of TFA to a final concentration of 2% (v/v).
Acidified samples of the DUB assays were mixed with 0.5 mM 15N-ubiquitin and then with one part of 2% (v/v) TFA and one part of 2.5 DHAP matrix solution (7.6 mg of 2.5 DHAP in […] ethanol and […] of an aqueous 12 mg ml 1 diammonium hydrogen citrate).

Experiment [1] deals with recombinant USP30 (amino acids 57-517 of the human sequence) (Homo sapiens (Human), UniProt Q70CQ3). The experiment in a line: In vitro USP30 biochemical assay (Ubiquitin-Rhodamine substrate). Particulars: fluorescence. How it is done: In vitro biochemical assay to establish the potency of compounds for USP30 inhibition: a 384-well plate assay using a fluorophore tagged substrate of USP30 was used for in vitro screening of compounds. Each compound was tested at
Chain of recombinant USP30 (amino acids 57-517 of the human sequence) (Q70CQ3 57-517): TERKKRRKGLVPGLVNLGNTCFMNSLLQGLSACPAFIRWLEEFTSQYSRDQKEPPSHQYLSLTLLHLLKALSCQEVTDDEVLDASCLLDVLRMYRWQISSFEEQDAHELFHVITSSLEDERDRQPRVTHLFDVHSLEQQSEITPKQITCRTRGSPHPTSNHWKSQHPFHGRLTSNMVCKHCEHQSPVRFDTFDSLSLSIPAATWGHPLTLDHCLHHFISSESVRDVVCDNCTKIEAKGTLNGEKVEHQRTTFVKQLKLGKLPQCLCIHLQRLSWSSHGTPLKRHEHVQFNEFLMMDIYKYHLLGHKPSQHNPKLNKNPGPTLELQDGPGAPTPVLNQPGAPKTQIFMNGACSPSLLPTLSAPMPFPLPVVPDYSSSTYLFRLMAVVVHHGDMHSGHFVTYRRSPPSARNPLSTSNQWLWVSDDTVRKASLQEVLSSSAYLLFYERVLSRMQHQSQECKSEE
10 different concentrations (0.5 to 10,000 nM) in duplicate wells. […] Data were analyzed using Graph Pad Prism software with a four-parameter (floating slope) fit to log concentration data to determine IC50s.

[2] abbreviates: 1.5 nM recombinant USP30, 25 nM Ubiquitin-Rhodamine.
Setting [3] is: […] recombinant USP30, 25 nM Ubiquitin-Rhodamine.

Chain of USP30 (Q70CQ3 whole entry): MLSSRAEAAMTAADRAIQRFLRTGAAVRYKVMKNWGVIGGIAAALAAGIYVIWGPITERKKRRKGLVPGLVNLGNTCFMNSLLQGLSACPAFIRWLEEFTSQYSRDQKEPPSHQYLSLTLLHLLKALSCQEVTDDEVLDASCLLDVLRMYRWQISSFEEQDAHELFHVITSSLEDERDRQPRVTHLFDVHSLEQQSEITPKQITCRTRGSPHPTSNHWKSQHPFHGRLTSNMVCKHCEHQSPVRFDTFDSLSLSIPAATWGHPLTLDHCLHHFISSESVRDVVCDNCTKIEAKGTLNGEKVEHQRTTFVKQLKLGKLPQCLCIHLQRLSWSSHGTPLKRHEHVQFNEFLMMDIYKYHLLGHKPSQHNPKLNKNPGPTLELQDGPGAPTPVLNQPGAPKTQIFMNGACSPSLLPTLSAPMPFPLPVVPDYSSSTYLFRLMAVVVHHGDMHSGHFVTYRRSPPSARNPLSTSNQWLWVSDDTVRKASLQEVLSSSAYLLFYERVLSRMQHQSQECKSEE

For `COc1cc(NC(=O)[C@H](CC2CCN(C)CC2)NC(=O)c2ccc(F)cc2)ccc1S(=O)(=O)NC(C)(C)C` [Compound I-84], the IC50 at USP30 was below 0.05 µM; in experiment [1] (setting [2]), 0.05 to 1 µM.
For the compound `CN1CCC(C[C@H](NC(=O)c2ccc(F)cc2)C(=O)Nc2ccc(S(=O)(=O)NC3CCOCC3)cc2)CC1` [Compound I-164], the IC50 on USP30 is below 0.05 µM; in experiment [1] (setting [2]) it was 0.05 to 1 µM.
For `CN1CCC(C[C@H](NC(=O)c2ccc(F)cn2)C(=O)Nc2ccc(S(=O)(=O)NC(C)(C)C)cc2)CC1` [Compound I-185, (S)—N-(1-((4-(N-(tert-butyl)sulfamoyl)phenyl)amino)-3-(1-methylpiperidin-4-yl)-1-oxopropan-2-yl)-5-fluoropicolinamide], the IC50 (on USP30; in experiment [1] (setting [3])) was below 0.05 µM each time.
Take `CC(C)(C)NS(=O)(=O)c1ccc(NC(=O)[C@H](Cc2ccccc2)NC(=O)c2ccc(F)nc2)cc1` [Compound I-163]: the IC50 (on USP30; in experiment [1] (setting [3])) was below 0.05 µM in each case.
For the compound `CC(C)(C)NS(=O)(=O)c1ccc(NC(=O)C(CC2CCN(CCO)CC2)NC(=O)c2ccc(F)cc2)cc1` (centres unmarked) [Compound I-121], the IC50 (on USP30; in experiment [1] (setting [3])) was below 0.05 µM throughout.
With `CC(C)(C)NS(=O)(=O)c1ccc(NC(=O)[C@H](CC2CCOCC2)NC(=O)c2ccc(F)cn2)cc1` [Compound I-177], the IC50 (on USP30; in experiment [1] (setting [3])) was below 0.05 µM throughout.
For `CC(=O)N1CCC(C[C@H](NC(=O)c2ccc(F)cc2)C(=O)Nc2ccc(S(=O)(=O)NC(C)(C)C)nc2)CC1` [Compound I-156], the IC50 (on USP30; in experiment [1] (setting [3])) was below 0.05 µM each time.
As to `CC(C)(C)NS(=O)(=O)c1ccc(NC(=O)[C@H](CC2CCOCC2)NC(=O)c2ccc(F)nc2)cc1` [Compound I-196], the IC50 (on USP30; in experiment [1] (setting [3])) was below 0.05 µM in each case.
Turning to `COc1cc(NC(=O)[C@H](Cc2ccccc2)NC(=O)c2ccc(F)cc2)ccc1S(=O)(=O)NC(C)(CO)CO` [Compound I-138], the IC50 on USP30 was below 0.05 µM; in experiment [1] (setting [2]), 0.05 to 1 µM.
With `CC(C)(C)NS(=O)(=O)c1ccc(NC(=O)C(CC2CCN(C=O)CC2)NC(=O)c2ccc(F)cc2)cc1` (centres unmarked) [Compound I-145], the IC50 (at USP30; in experiment [1] (setting [3])) was below 0.05 µM in each case.
For the compound `CC(C)(C)NS(=O)(=O)c1ccc(NC(=O)[C@H](CC2CCN(Cc3ccccc3)CC2)NC(=O)c2ccc(F)cc2)cc1` [Compound I-115], the IC50 (at USP30; in experiment [1] (setting [3])) was below 0.05 µM throughout.
`Cn1cncc1CNS(=O)(=O)c1ccc(NC(=O)[C@H](Cc2ccccc2)NC(=O)c2ccc(F)cc2)cc1` [Compound I-227]: the IC50 (on USP30; in experiment [1] (setting [2])) was 0.05 to 1 µM each time.
For `C[C@@H](CO)NS(=O)(=O)c1ccc(NC(=O)[C@H](Cc2ccccc2)NC(=O)c2ccc(F)cc2)cn1` [Compound I-149], the figures for the 50% inhibitory concentration (IC50) (at USP30; in experiment [1] (setting [2])) were below 0.05 µM and 0.05 to 1 µM, respectively.
`COc1cc(NC(=O)[C@H](Cc2ccccc2)NC(=O)c2ccc(F)cc2)ccc1S(=O)(=O)N[C@@H](C)CO` [Compound I-136]: the IC50 at USP30 is below 0.05 µM; in experiment [1] (setting [2]), 0.05 to 1 µM.
For `COc1cc(NC(=O)[C@H](CC2CCOCC2)NC(=O)c2ccc(F)cc2)ccc1S(=O)(=O)NC1CCCC1` [Compound I-87], the IC50 (at USP30; in experiment [1] (setting [3])) was below 0.05 µM each time.
Turning to `CC(C)(C)NS(=O)(=O)c1ccc(NC(=O)[C@H](CC2CCN(CCC(F)(F)F)CC2)NC(=O)c2ccc(F)cc2)cn1` [Compound I-208], the 50% inhibitory concentration (IC50) (at USP30; in experiment [1] (setting [2])) was 0.05 to 1 µM throughout.
For `CC(C)C[C@H](NC(=O)c1ccc(F)cc1)C(=O)Nc1ccc(S(=O)(=O)N[C@@H]2CCOC2)cc1` [Compound I-71], the IC50 at USP30 was below 0.05 µM; in experiment [1] (setting [2]) it was 0.05 to 1 µM.
The matching figures for `CC(=O)O[C@@H]1C[C@@H](C(=O)Nc2ccc(S(=O)(=O)NC(C)(C)C)cc2)N(C(=O)c2ccc(F)cc2)C1` [Compound I-266]: 0.05 to 1 µM and 0.05 to 1 µM.
In the case of `COc1cc(NC(=O)[C@H](CC2CCN(C(C)=O)CC2)NC(=O)c2ccc(F)cc2)ccc1S(=O)(=O)NC(C)(C)C` [Compound I-160], the IC50 (on USP30; in experiment [1] (setting [3])) was below 0.05 µM each time.
For the compound `CC(CO)(CO)NS(=O)(=O)c1ccc(NC(=O)[C@H](Cc2ccccc2)NC(=O)c2ccc(F)cc2)cc1` [Compound I-132], the IC50 was below 0.05 µM on USP30 and 0.05 to 1 µM in experiment [1] (setting [2]).
The matching figures for `C[C@H](CO)NS(=O)(=O)c1ccc(NC(=O)[C@H](Cc2ccccc2)NC(=O)c2ccc(F)cc2)cn1` [Compound I-151]: below 0.05 µM and 0.05 to 1 µM.
In the case of `O=C(N[C@@H](Cc1ccccc1)C(=O)Nc1ccc(S(=O)(=O)NC2(CO)CC2)cc1)c1ccc(F)cc1` [Compound I-131], the IC50 (at USP30; in experiment [1] (setting [3])) was below 0.05 µM throughout.
As for `COc1cc(NC(=O)[C@H](CC2CCNCC2)NC(=O)c2ccc(F)cc2)ccc1S(=O)(=O)NC1COC1` [Compound I-109, (S)-4-fluoro-N-(1-((3-methoxy-4-(N-(oxetan-3-yl)sulfamoyl)phenyl)amino)-1-oxo-3-(piperidin-4-yl)propan-2-yl)benzamide], the 50% inhibitory concentration (IC50) on USP30 is below 0.05 µM; in experiment [1] (setting [2]), 0.05 to 1 µM.
For `CC(CO)(CO)NS(=O)(=O)c1ccc(NC(=O)[C@H](Cc2ccccc2)NC(=O)c2ccc(F)cc2)cn1` [Compound I-148] the same measures were 0.05 to 1 µM and 0.05 to 1 µM.
The matching figures for `CN1CCC(C[C@H](NC(=O)c2ccc(F)cc2)C(=O)Nc2ccc(S(=O)(=O)NC(C)(C)CO)nc2)CC1` [Compound I-106]: 0.05 to 1 µM and 0.05 to 1 µM.
On to `CC(C)(CF)NS(=O)(=O)c1ccc(NC(=O)[C@H](CC2CCNCC2)NC(=O)c2ccc(F)cc2)cc1` [Compound I-122], for which the IC50 on USP30 is below 0.05 µM; in experiment [1] (setting [2]), 0.05 to 1 µM.
For the compound `CC(C)(C)NS(=O)(=O)c1ccc(NC(=O)[C@H](Cc2ccccc2)NC(=O)c2nccs2)cc1` [Compound I-168], the values for the IC50 (at USP30; in experiment [1] (setting [2])) were below 0.05 µM and 0.05 to 1 µM, respectively.
The matching figures for `COc1cc(NC(=O)[C@H](CC2CCN(C)CC2)NC(=O)c2ccc(F)cc2)ccc1S(=O)(=O)NC1CCOCC1` [Compound I-143]: 0.05 to 1 µM and 0.05 to 1 µM.
For the compound `CNCCN1CCC(C[C@H](NC(=O)c2ccc(F)cc2)C(=O)Nc2ccc(S(=O)(=O)NC(C)(C)C)cc2)CC1` [Compound I-171], the IC50 (at USP30; in experiment [1] (setting [3])) was below 0.05 µM throughout.
Take `CN1CCC(C[C@H](NC(=O)c2ccc(F)cc2)C(=O)Nc2ccc(S(=O)(=O)N[C@@H]3CCOC3)cc2)CC1` [Compound I-103]: the concentration for half-maximal inhibition (IC50) (on USP30; in experiment [1] (setting [2])) was 0.05 to 1 µM throughout.
As for `CC(C)(NS(=O)(=O)c1ccc(NC(=O)[C@H](CC2CCNCC2)NC(=O)c2ccc(F)cn2)cc1)C(F)(F)F` [Compound I-199], the IC50 (on USP30; in experiment [1] (setting [2])) was 0.05 to 1 µM in each case.
Consider `CN1CCC(C[C@H](NC(=O)c2ccc(F)cc2)C(=O)Nc2ccc(S(=O)(=O)N[C@@H]3CCOC3)nc2)CC1` [Compound I-105], for which the half-maximal inhibitory concentration (IC50) (at USP30; in experiment [1] (setting [2])) was 0.05 to 1 µM in each case.
Regarding `CC(C)(C)NS(=O)(=O)c1ccc(NC(=O)[C@H](Cc2ccccc2)NC(=O)C2CCOCC2)cc1` [Compound I-174], the IC50 (at USP30; in experiment [1] (setting [2])) was 0.05 to 1 µM each time.
As to `COc1cc(NC(=O)[C@H](Cc2ccccc2)NC(=O)c2ccc(F)cc2)ccc1S(=O)(=O)NC1(CO)CC1` [Compound I-141], the figures for the IC50 (on USP30; in experiment [1] (setting [2])) were below 0.05 µM and 0.05 to 1 µM, respectively.

In general, IC50 refers to the concentration needed to halve the response being measured.

The values are drawn from patent publication US20250162989A1, “USP30 INHIBITORS AND USES THEREOF” (Vincere Biosciences, Inc., priority 2021, published 2025).
